Values joined by “and” are separate entries in the source; they are usually repeats but may differ in a detail not shown here. Equal entries are not always repeated. Where two headings read alike, the source gives them in different places.
Tests used:
NMDA receptor = test: Inhibition of NMDA/glycine-induced increases in intracellular calcium in cultured rat cerebellar granule cells (RCGC); assay type: cell-based; details: NMDA/glycine-induced increases in intracellular calcium, cultured rat cerebellar granule cells; read-out: IC50 (μM) vs. NMDA
[1] = biological target: NMDA receptor-ionophore complex (site labeled by [3H]MK-801); test: Inhibition of [3H]MK-801 binding in rat cortical/hippocampal washed membrane preparations; details: read-out: IC50 (μM) vs. [3H]MK-801
[2] = rat cortical/hippocampal washed membranes

| Structure (SMILES) | IC50 (NMDA receptor) | IC50 [1, 2] [µM] | IC50 [1] [µM] |
| --- | --- | --- | --- |
| NCCC(c1ccccc1)c1cccc(F)c1 (stereo not drawn) [Compound 32, 3-(3-fluorophenyl)-3-phenyl-1-propylamine] | 0.284 µM | 0.799 |  |
| CCC(CCN)c1cccc(F)c1 (stereo not drawn) [Compound 35] | 6.2 µM | 25.1 |  |
| CC(C)C(CCN)c1cccc(F)c1 (stereo not drawn) [Compound 37] | 0.944 µM | 11.1 |  |
| CC(N)C(C)C(c1cccc(F)c1)c1cccc(F)c1 (stereo not drawn) [Compound 38, 3,3-bis(3-fluorophenyl)-1,2-dimethyl-1-propylamine] | 0.407 µM | 2.3 |  |
| CCNC[C@H](C)C(c1cccc(F)c1)c1cccc(F)c1 [Compound 39] | 0.251 µM | 2.9 |  |
| CC(C)(CN)C(c1cccc(F)c1)c1cccc(F)c1 [Compound 41, 3,3-bis(3-fluorophenyl)-2,2-dimethyl-1-propylamine] | 0.724 µM | 14 |  |
| CC(N)CC(c1cccc(Cl)c1)c1cccc(Cl)c1 (stereo not drawn) [Compound 43] | 0.232 µM | 7.5 |  |
| NCCC(c1cccc(F)c1)c1ccccc1F (stereo not drawn) [Compound 52, 3-(2-fluorophenyl)-3-(3-fluorophenyl)-1-propylamine] | 0.102 µM | 0.38 |  |
| NCCC(c1ccccc1F)c1ccccc1F [Compound 53, 3,3-bis(2-fluorophenyl)-1-propylamine] | 0.217 µM | 4.2 |  |
| CCC(CN)C(c1cccc(F)c1)c1cccc(F)c1 (stereo not drawn) [Compound 55, 3,3-bis(3-fluorophenyl)-2-ethyl-1-propylamine] | 0.035 µM | 0.153 |  |
| Cc1c(F)cccc1C(CCN)c1cccc(F)c1 (stereo not drawn) [Compound 56, 3-(3-fluorophenyl)-3-(2-methyl-3-fluorophenyl)-1-propylamine] | 0.218 µM | 0.955 |  |
| COc1ccc(F)cc1C(CCN)c1cccc(F)c1 (stereo not drawn) [Compound 61, 3-(3-fluorophenyl)-3-(3-fluoro-6-methoxyphenyl)-1-propylamine] | 0.134 µM | 0.324 |  |
| COc1ccccc1C(CCN)c1ccccc1OC [Compound 62, 3,3-bis(2-methoxyphenyl)-1-propylamine] | 0.177 µM | 0.617 |  |
| Cc1ccccc1C(CCN)c1ccccc1C [Compound 65, 3,3-bis(2-methylphenyl)-1-propylamine] | 0.167 µM | 2 |  |
| CNC[C@H](C)C(c1cccc(F)c1)c1cccc(F)c1 [Compound 66] | 0.236 µM | 1.2 |  |
| CNCCC(c1ccccc1)c1ccccc1 [Compound 67, N-methyl-3,3-diphenylpropylamine] | 11 µM | 2.9 |  |
| CN[C@@H](C)CC(c1cccc(F)c1)c1cccc(F)c1 [Compound 69] | 0.224 µM | 0.366 |  |
| NCCC(c1ccncc1)c1cccc(F)c1 (stereo not drawn) [Compound 79] | 12.6 µM | 10.2 |  |
| CCC(CC)(CN)C(c1cccc(F)c1)c1cccc(F)c1 [Compound 80, 3,3-bis(3-fluorophenyl)-2,2-diethyl-1-propylamine] | 28 µM | 182 |  |
| NCC=C(c1ccccc1)c1ccccc1 [Compound 81, 3,3-diphenyl-prop-2-ene-1-amine] | 1.4 µM | 6.1 |  |
| CCC(CCN)(c1cccc(F)c1)c1cccc(F)c1 [Compound 82, 3,3-bis(3-fluorophenyl)-3-ethyl-1-propylamine] | 0.106 µM | 0.794 |  |
| NCCC(c1cccc(F)c1)c1cccs1 (stereo not drawn) [Compound 83] | 0.342 µM | 0.794 |  |
| OC1(C(c2cccc(F)c2)c2cccc(F)c2)CCNC1 (stereo not drawn) [Compound 84] | 7.9 µM | 23.4 |  |
| C[C@H](C(c1ccccc1)c1ccccc1)[C@@H](C)N [Compound 86] | 1.2 µM | 6 |  |

| Structure (SMILES) | IC50 (NMDA receptor) | IC50 [1, 2] [µM] | IC50 [1] [µM] |
| --- | --- | --- | --- |
| C[C@H](N)[C@H](C)C(c1ccccc1)c1ccccc1 [Compound 87] | 0.657 µM | 3 |  |
| NCCOC(c1ccccc1)c1ccccc1 [Compound 88] | 2.5 µM | 10.6 |  |
| N=C(N)CC(c1cccc(F)c1)c1cccc(F)c1 [Compound 89] | 0.24 µM | 1.2 |  |
| NCCC(c1ccsc1)c1cccc(F)c1 (stereo not drawn) [Compound 90] | 0.27 µM | 1.4 |  |
| CCC(NCCC(c1ccccc1)c1ccccc1)c1ccccc1 (stereo not drawn) [Compound 91] | 0.162 µM | 14.1 |  |
| Fc1cccc(C(CCNCc2ccccc2)c2cccc(F)c2)c1 [Compound 92] | 1.3 µM | 20.2 |  |
| CC(NCCC(c1cccc(F)c1)c1cccc(F)c1)c1ccccc1 (stereo not drawn) [Compound 93] | 0.486 µM | 26.9 |  |
| CCC(NCCC(c1cccc(F)c1)c1cccc(F)c1)c1ccccc1 (stereo not drawn) [Compound 94] | 0.248 µM | 22.6 |  |
| NCCC(c1cc(F)cc(F)c1)c1cc(F)cc(F)c1 [Compound 95, 3,3-bis(3,5,difluorophenyl)-1-propylamine] | 0.311 µM | 3 |  |
| NCCC(c1cccc(F)c1)c1cc(F)cc(F)c1 (stereo not drawn) [Compound 96, 3-(3,5-difluorophenyl)-3-(3-fluorophenyl)-1-propylamine] | 0.187 µM | 1.1 |  |
| COc1ccccc1C(CCN)c1ccccc1 (stereo not drawn) [Compound 97, 3-(2-methoxyphenyl)-3-phenyl-1-propylamine] | 0.41 µM | 2.6 |  |
| NCC(c1cccc(F)c1)c1cccc(F)c1 [Compound 98, 2,2-bis(3-fluorophenyl)-1-ethylamine] | 7.9 µM | 52.5 |  |
| NCC(c1ccc(F)cc1)c1ccc(F)cc1 [Compound 99] | > 100 µM | 105 |  |
| NCCCC(c1cccc(F)c1)c1cccc(F)c1 [Compound 100, 4,4-bis(3-fluorophenyl)-1-butylamine] | 0.602 µM | 3.2 |  |
| NCCC(c1cccc(O)c1)c1cccc(F)c1 (stereo not drawn) [Compound 101] | 0.912 µM | 2 |  |
| Fc1cccc(C(c2cccc(F)c2)C2CCNC2)c1 (stereo not drawn) [Compound 102] | 1.01 µM | 3.3 |  |
| NCCC(c1cccc(F)c1)c1ccccc1O (stereo not drawn) [Compound 103, 3-(2-hydroxyphenyl)-3-(3-fluorophenyl)-1-propylamine] | 0.38 µM | 0.661 |  |
| NCCCC(c1ccc(F)cc1)c1ccc(F)cc1 [Compound 104] | 7.98 µM | > 10 |  |
| CN(CCC(c1cccc(F)c1)c1cccc(F)c1)Cc1ccccc1 [Compound 105] | 1.03 µM | > 3 |  |
| CNCC=C(c1cccc(F)c1)c1cccc(F)c1 [Compound 106] | 0.767 µM | 1.31 |  |
| CNCCC(c1ccccc1)c1cccc(F)c1 (stereo not drawn) [Compound 108, N-methyl-3-(3-fluorophenyl)-3-phenyl-1-propylamine] | 1.06 µM | 0.942 |  |
| Fc1cccc(C(=C2CCCNC2)c2cccc(F)c2)c1 [Compound 109] | 1.95 µM | 1.08 |  |
| Fc1cccc(C(=C2CCNCC2)c2cccc(F)c2)c1 [Compound 110] | 42.7 µM | 13.3 |  |
| Fc1cccc(C(c2cccc(F)c2)C2CCCNC2)c1 (stereo not drawn) [Compound 111] | 0.645 µM and 0.79 µM | 0.167 |  |

| Structure (SMILES) | IC50 (NMDA receptor) | IC50 [1, 2] [µM] | IC50 [1] [µM] |
| --- | --- | --- | --- |
| Fc1cccc(C(c2cccc(F)c2)C2CCNCC2)c1 [Compound 112] | 28 µM and 28.9 µM | 21 |  |
| COc1cccc(C(CCN)c2cccc(OC)c2)c1 [Compound 115, 3,3-bis(3-methoxyphenyl)-1-propylamine] | 1.4 µM and 1.9 µM | 1 |  |
| NCCN(c1ccccc1)c1ccccc1 [Compound 117] | 19.6 µM | 6 |  |
| NCCC(Oc1ccccc1)c1cccc(F)c1 (stereo not drawn) [Compound 118] | 0.409 µM | 0.24 |  |
| COc1ccccc1OC(CCN)c1cccc(F)c1 (stereo not drawn) [Compound 121] | 0.656 µM | 0.67 |  |
| CN(C)CCC(c1cccc(F)c1)c1cccc(F)c1 [Compound 123, N,N-dimethyl-3,3-bis(3-fluorophenyl)-1-propylamine] | 9.6 µM | > 3 |  |
| NCCCc1ccccc1-c1cccc(F)c1 [Compound 124] | 3.5 µM | 14.3 |  |
| NCCC(Cc1ccccc1)c1ccccc1 (stereo not drawn) [Compound 125] | 1.7 µM | 6.7 |  |
| NCC(Cc1cccc(F)c1)Cc1cccc(F)c1 [Compound 126] | 0.398 µM | 6 |  |
| NCCCc1ccccc1Cc1ccccc1 [Compound 127] | 1.2 µM | 17.5 |  |
| NCCc1ccccc1Cc1ccccc1 [Compound 128] | 0.646 µM |  | 5.5 |
| NCCc1ccccc1Oc1ccccc1 [Compound 132] | 1.3 µM | 6.4 |  |
| NCC(Cc1ccccc1)c1ccccc1 (stereo not drawn) [Compound 133] | 0.76 µM | 3 |  |
| COc1cccc(C(CCN)c2cccc(Cl)c2)c1 (stereo not drawn) [Compound 136] | 0.139 µM | 0.706 |  |
| NCC=C(c1cccc(F)c1)c1cccc(F)c1 [Compound 139, 3,3-bis(3-fluorophenyl)-prop-2-ene-1-amine] | 1.97 µM and 1.4 µM | 5.6 |  |
| COc1cccc(/C(=C\CN)c2cccc(F)c2)c1 [Compound 141] | 4.26 µM | 8.97 |  |
| CNCCC(c1cccc(F)c1)c1cccc(OC)c1 (stereo not drawn) [Compound 142] | 1.01 µM | 1.54 |  |
| CNCCC(Oc1cccc(F)c1)c1cccc(F)c1 (stereo not drawn) [Compound 145] | 0.098 µM | 0.626 |  |
| NCCC(Oc1ccccc1)c1ccccc1 (stereo not drawn) [Compound 146] | 0.829 µM | 0.372 |  |
| NCCC(Oc1ccccc1)c1cccc(Cl)c1 (stereo not drawn) [Compound 148] | 0.549 µM | 0.373 |  |
| NCCC(Oc1cccc(Cl)c1)c1cccc(Cl)c1 (stereo not drawn) [Compound 149] | 0.085 µM | 0.15 |  |
| NCCC(Oc1cccc(F)c1)c1cccc(Cl)c1 (stereo not drawn) [Compound 150] | 0.195 µM | 0.351 |  |
| CCCC(NCCC(c1ccccc1)c1ccccc1)c1ccccc1 (stereo not drawn) [Compound 157] | 0.142 µM | 23.2 |  |
| CC(C)C(NCCC(c1ccccc1)c1ccccc1)c1ccccc1 (stereo not drawn) [Compound 158] | 0.351 µM | 39.6 |  |

Source: patent US6750244B2, “Compounds active at a novel site on receptor-operated calcium channels useful for treatment of neurological disorders and diseases” (NPS Pharmaceuticals, Inc., priority 1993, dated 2004)
